Residues, ends and D or L forms follow the SMILES beside them.
Key:
[1] = tested on: Bcl-2; conditions: cited from earlier work
[2] = biological target: T1, Bcl-xL (Homo sapiens, UniProt Q07817); conditions: cited from earlier work
[3] = biological target: T2, Mcl-1 (Mus musculus, UniProt P97287); conditions: cited from earlier work
[4] = biological target: T2, Mcl-1; experiment: Direct FP binding assay of fluorescein-conjugated peptides; conditions: read-out: Kd toward Mcl-1, N-terminal fluorescein-conjugated peptides
[5] = biological target: T1, Bcl-xL; experiment: as above
[6] = Stability in mouse serum; type: in vitro ADME; conditions: for half-life: mouse
[7] = tested on: Mcl-1-overexpressing U937 cells; conditions: for Activity in cell viability assay: U937 cells
[8] = biological target: T2, Mcl-1; experiment: Competitive fluorescence polarization; type: binding; conditions: competitive FP assay
[9] = Far-UV CD measurement of percent helicity; type: physicochemical; conditions: for Percent helicity: 50 μM in ACN/H2O (1:1), calculated from [θ]222

T2 sequence (P97287 whole entry): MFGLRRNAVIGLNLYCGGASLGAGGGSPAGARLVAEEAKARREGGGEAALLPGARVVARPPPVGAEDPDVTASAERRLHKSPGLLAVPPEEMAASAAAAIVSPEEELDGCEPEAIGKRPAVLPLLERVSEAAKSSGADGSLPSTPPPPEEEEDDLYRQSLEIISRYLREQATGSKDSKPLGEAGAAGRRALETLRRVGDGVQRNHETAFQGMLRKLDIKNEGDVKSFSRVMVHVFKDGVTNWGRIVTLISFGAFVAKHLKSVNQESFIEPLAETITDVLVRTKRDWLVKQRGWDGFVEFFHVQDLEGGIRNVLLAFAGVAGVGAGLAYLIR
T1 sequence (Q07817 whole entry, species assumed): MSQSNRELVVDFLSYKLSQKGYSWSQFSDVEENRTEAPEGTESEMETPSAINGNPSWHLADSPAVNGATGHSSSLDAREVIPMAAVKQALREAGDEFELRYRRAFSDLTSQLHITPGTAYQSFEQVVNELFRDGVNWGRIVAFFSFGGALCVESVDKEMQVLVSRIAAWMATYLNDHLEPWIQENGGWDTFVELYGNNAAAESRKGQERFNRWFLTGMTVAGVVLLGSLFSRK

Structure (SMILES)	half-life [6] [h]	Activity in cell viability assay ([7]; 20 μM peptide, 48 hours)	Increase in inhibitory activity compared to parent Noxa peptide [8] [fold]	Percent helicity [9] [%]	Increase in stability in mouse serum relative to linear Noxa peptide [6] [fold]	also measured
CN(C)CC[C@H](CSc1ccccc1)Nc1ccc(S(=O)(=O)NC(=O)c2ccc(N3CCN(Cc4ccccc4-c4ccc(Cl)cc4)CC3)cc2)cc1[N+](=O)[O-] [ABT-737]	–	–	–	–	–	Binding affinity to Bcl-2 [1]: subnanomolar affinity; Binding affinity to Bcl-xL [2]: subnanomolar affinity; Binding to Mcl-1 [3]: poorly
CC[C@H](C)[C@H](NC(=O)[C@H](CCCNC(=N)N)NC(=O)[C@H](CCCNC(=N)N)NC(=O)[C@H](CC(C)C)NC(=O)[C@H](CCC(N)=O)NC(=O)[C@H](C)NC(=O)[C@H](C)NC(C)=O)C(=O)NCC(=O)N[C@@H](CC(=O)O)C(=O)N[C@@H](CCCCN)C(=O)N[C@H](C(=O)N[C@@H](CC(N)=O)C(=O)N[C@@H](CC(C)C)C(=O)N[C@@H](CCCNC(=N)N)C(=O)N[C@@H](CCC(N)=O)C(=O)N[C@@H](CCCCN)C(=O)N[C@@H](CC(C)C)C(=O)N[C@@H](CC(C)C)C(=O)N[C@@H](CC(N)=O)C(N)=O)C(C)C [Noxa, reference compound]	0.175 ± 0.0383	no activity	–	–	–	Kd [4]: 0.0067 ± 0.001 µM; Kd [5]: > 1 µM; Cell viability ([7]; ATP assay, U937 cells in RPMI1640 with 5% FBS, 20 μM peptide, 48 hours): 97.6±0.9%
CC[C@H](C)[C@@H]1NC(=O)[C@H](CCCNC(=N)N)NC(=O)[C@H](CCCNC(=N)N)NC(=O)[C@H](CC(C)C)NC(=O)[C@@H](NC(=O)[C@H](C)NC(=O)[C@H](C)NC(C)=O)CSCc2ccc(cc2)-c2ccc(cc2)CSC[C@@H](C(=O)N[C@H](C(=O)N[C@@H](CC(N)=O)C(=O)N[C@@H](CC(C)C)C(=O)N[C@@H](CCCNC(=N)N)C(=O)N[C@@H](CCC(N)=O)C(=O)N[C@@H](CCCCN)C(=O)N[C@@H](CC(C)C)C(=O)N[C@@H](CC(C)C)C(=O)N[C@@H](CC(N)=O)C(N)=O)C(C)C)NC(=O)[C@H](CC(=O)O)NC(=O)CNC1=O [compound 1]	–	no activity	65	–	–	–
CC[C@H](C)[C@@H]1NC(=O)[C@H](CCCNC(=N)N)NC(=O)[C@H](CCCNC(=N)N)NC(=O)[C@H](CC(C)C)NC(=O)[C@H](NC(=O)[C@H](C)NC(=O)[C@H](C)NC(C)=O)CSCc2ccc(cc2)-c2ccc(cc2)CSC[C@@H](C(=O)N[C@H](C(=O)N[C@@H](CC(N)=O)C(=O)N[C@@H](CC(C)C)C(=O)N[C@@H](CCCNC(=N)N)C(=O)N[C@@H](CCC(N)=O)C(=O)N[C@@H](CCCCN)C(=O)N[C@@H](CC(C)C)C(=O)N[C@@H](CC(C)C)C(=O)N[C@@H](CC(N)=O)C(N)=O)C(C)C)NC(=O)[C@H](CC(=O)O)NC(=O)CNC1=O [compound 2]	–	no activity	12	–	–	–
CC[C@H](C)[C@@H]1NC(=O)[C@H](C)NC(=O)[C@H](CCCNC(=N)N)NC(=O)[C@H](CC(C)C)NC(=O)[C@H](NC(=O)[C@H](C)NC(=O)[C@H](C)NC(C)=O)CSCc2ccc(cc2)-c2ccc(cc2)CSC[C@@H](C(=O)N[C@H](C(=O)N[C@@H](CC(N)=O)C(=O)N[C@@H](CC(C)C)C(=O)N[C@@H](C)C(=O)N[C@@H](CCC(N)=O)C(=O)N[C@@H](C)C(=O)N[C@@H](CC(C)C)C(=O)N[C@@H](CC(C)C)C(=O)N[C@@H](CC(N)=O)C(N)=O)C(C)C)NC(=O)[C@H](CC(=O)O)NC(=O)CNC1=O [compound 5] (HELM PEPTIDE1{[ac].A.A.[dC].L.R.A.I.G.D.C.V.N.L.A.Q.A.L.L.N.[am]}|CHEM1{[c1cc(-c2ccc(C[*:2])cc2)ccc1C[*:1]]}$PEPTIDE1,CHEM1,4:R3-1:R1|PEPTIDE1,CHEM1,11:R3-1:R2$$$V2.0)	31.6 ± 2.2	–	–	66	180	Increase in helicity, 5 compared to 2 [9]: more than twofold
CC[C@H](C)[C@@H]1NC(=O)[C@H](C)NC(=O)[C@H](CCCNC(=N)N)NC(=O)[C@H](CC(C)C)NC(=O)[C@H](NC(=O)[C@H](C)N(C)C(=O)[C@H](C)N(C)C(=O)OC)CSCc2ccc(cc2)-c2ccc(cc2)CSC[C@@H](C(=O)N[C@H](C(=O)N[C@@H](CC(N)=O)C(=O)N[C@@H](CC(C)C)C(=O)N[C@@H](C)C(=O)N[C@@H](CCC(N)=O)C(=O)N[C@@H](C)C(=O)N[C@@H](CC(C)C)C(=O)N[C@@H](CC(C)C)C(=O)N[C@@H](CC(N)=O)C(N)=O)C(C)C)NC(=O)[C@H](CC(=O)O)NC(=O)CNC1=O [compound 8] (HELM PEPTIDE1{[COC(=O)[*:2]].[meA].[meA].[dC].L.R.A.I.G.D.C.V.N.L.A.Q.A.L.L.N.[am]}|CHEM1{[c1cc(-c2ccc(C[*:2])cc2)ccc1C[*:1]]}$PEPTIDE1,CHEM1,4:R3-1:R1|PEPTIDE1,CHEM1,11:R3-1:R2$$$V2.0)	21.2 ± 2.6	–	–	52	121	EC50 ([7]; 48 h): 13.4 µM

From article PMC3472523 (Journal of the American Chemical Society, 2012)
